In patent US8158606B2, “β-L-2′-deoxynucleosides for the treatment of resistant HBV strains and combination therapies” (priority 2002, dated 2012):
Like-named read-outs stand apart in the source and are kept apart here.

Assay: Single-dose bioavailability of L-dC in the woodchuck
Type: in vivo
Settings: for half-life: in vivo, read-out: t1/2 of L-dC (converted); for bioavailability: po, 10 mg/kg, L-dC 10 mg/kg PO vs IV; for AUC(0-t): read-out: AUCt→24 of L-dC
Description: Plasma drug levels, CL, ty, and F were determined.

[1] = plasma, L-dC 10 mg/kg single IV dose, mean
[2] = plasma, L-dC 10 mg/kg single PO dose, mean

Nc1ccn([C@@H]2CC(O)[C@H](CO)O2)c(=O)n1 (stereo partly drawn) [L-dC, 2′-Deoxy-β-L-cytidine]
half-life (L-dC 10 mg/kg single IV dose, mean): 2.85 h | half-life (L-dC 10 mg/kg single PO dose, mean): 5.22 h | bioavailability (plasma, read-out: oral bioavailability (F), average): 9.57% | bioavailability (plasma, read-out: oral bioavailability, range of animals): 5.6 to 16.9% | Tmax (plasma, L-dC 10 mg/kg single IV dose): 0 h | Vd [1]: 1.17 L/kg | clearance [1]: 6.5 mL/min/kg | Cmax (plasma, L-dC 10 mg/kg single IV dose, mean, at 2 minutes post-dose): 112 µM | AUC(0-t) (plasma, L-dC 10 mg/kg single IV dose, n=3, t = 0.033 hours, mean): 174 µM·h | Cmax [2]: 1.37 µM | Tmax [2]: 3 h | AUC(0-t) (plasma, L-dC 10 mg/kg single PO dose, n=3, t = 0.25 hours, mean): 11.3 µM·h
